Where “and” joins values, the source holds several entries; their conditions need not be identical. Equal values may be shown once. After the bases stand the sugars from the 5' end (letter, count) and the backbone: PS all phosphorothioate, else s phosphorothioate and o phosphodiester by linkage. Methylation of C is not given here. k = constrained ethyl (cEt); d = 2'-deoxy (DNA)
Molecular target: MALAT1
Conditions: ASO, A431, 0.005 µM

## CGGGATCAGAACAGTA (sugars k3 d10 k3, PS)
  target mRNA inhibition: 24%

## CGTATTTATAGACGGA (sugars k3 d10 k3, PS)
  target mRNA inhibition: -9%

## CGTCATGGATTTCAAG (sugars k3 d10 k3, PS)
  target mRNA inhibition: 40%

## CGTGTGGTTGCCAAGC (sugars k3 d10 k3, PS)
  target mRNA inhibition: 45%

## CTAAACAATTACCTAA (sugars k3 d10 k3, PS)
  target mRNA inhibition: 3%

## CTAAAGGCTTCAGTCC (sugars k3 d10 k3, PS)
  target mRNA inhibition: 23%

## CTAAATCATTGGGAGT (sugars k3 d10 k3, PS)
  target mRNA inhibition: 48%

## CTAACATAGTTCAACC (sugars k3 d10 k3, PS)
  target mRNA inhibition: 16%

## CTAACTTCTGCACCAC (sugars k3 d10 k3, PS)
  target mRNA inhibition: 38%

## CTACTCCAAGCATTGG (sugars k3 d10 k3, PS)
  target mRNA inhibition: 27%

## CTACTGGCTGCATCGA (sugars k3 d10 k3, PS)
  target mRNA inhibition: 54%

## CTATAGCATCTGTGGA (sugars k3 d10 k3, PS)
  target mRNA inhibition: 29%

## CTATATAAGGTCAATA (sugars k3 d10 k3, PS)
  target mRNA inhibition: 16%

## CTATATTTAAGGCCTT (sugars k3 d10 k3, PS)
  target mRNA inhibition: 26%

## CTATCTTCTATACTTC (sugars k3 d10 k3, PS)
  target mRNA inhibition: 24%

## CTATTGGTATTAATTC (sugars k3 d10 k3, PS)
  target mRNA inhibition: 7%

## CTCAATCCACTTGATC (sugars k3 d10 k3, PS)
  target mRNA inhibition: 32%

## CTCACAAAACCCCCGG (sugars k3 d10 k3, PS)
  target mRNA inhibition: 18%

## CTCAGTTACACATCCA (sugars k3 d10 k3, PS)
  target mRNA inhibition: 70% and 94%

## CTCCATGGTTGTCCTA (sugars k3 d10 k3, PS)
  target mRNA inhibition: 39%

## CTCCCCCAACTGCTTG (sugars k3 d10 k3, PS)
  target mRNA inhibition: 22%

## CTCTGATCATAATCTC (sugars k3 d10 k3, PS)
  target mRNA inhibition: 35%

## CTCTGCATCTAGGCCA (sugars k3 d10 k3, PS)
  target mRNA inhibition: 40%

## CTGACTTTGTATGTAA (sugars k3 d10 k3, PS)
  target mRNA inhibition: 51%

## CTGAGGCAAACGAAAC (sugars k3 d10 k3, PS)
  target mRNA inhibition: -6%

## CTGAGTGAAGTGTACT (sugars k3 d10 k3, PS)
  target mRNA inhibition: 48%

## CTGATAAACTCACTGC (sugars k3 d10 k3, PS)
  target mRNA inhibition: 48%

## CTGATAACGAAGAGAT (sugars k3 d10 k3, PS)
  target mRNA inhibition: -3%

## CTGATTATCCTGATAT (sugars k3 d10 k3, PS)
  target mRNA inhibition: 33%

## CTGCAATCATAAACTA (sugars k3 d10 k3, PS)
  target mRNA inhibition: 10%

## CTGCACTGTGCTGTAC (sugars k3 d10 k3, PS)
  target mRNA inhibition: -5%

## CTGCAGAGTTTGAGTG (sugars k3 d10 k3, PS)
  target mRNA inhibition: -19%

## CTGCAGGCTATTACCT (sugars k3 d10 k3, PS)
  target mRNA inhibition: -6%

## CTGGGTCAGCTGTCAA (sugars k3 d10 k3, PS)
  target mRNA inhibition: 33%

## CTGGTACACCCAGTGG (sugars k3 d10 k3, PS)
  target mRNA inhibition: 4%

## CTGGTTAGGTATGAGC (sugars k3 d10 k3, PS)
  target mRNA inhibition: 3%

## CTGTTTAAGTCACCTT (sugars k3 d10 k3, PS)
  target mRNA inhibition: 76% and 61%

## CTTAAAGCACTTCTTG (sugars k3 d10 k3, PS)
  target mRNA inhibition: -34%

## CTTAGTTGGCATCAAG (sugars k3 d10 k3, PS)
  target mRNA inhibition: 31%

## CTTATCTGCGGTTTCC (sugars k3 d10 k3, PS)
  target mRNA inhibition: 62% and 53%

## CTTATCTGTTAACAGC (sugars k3 d10 k3, PS)
  target mRNA inhibition: 43%

## CTTATGGAACTTGAAT (sugars k3 d10 k3, PS)
  target mRNA inhibition: -5%

## CTTCAACATTTGGCCT (sugars k3 d10 k3, PS)
  target mRNA inhibition: 18%

## CTTCTCTAACCCAGTT (sugars k3 d10 k3, PS)
  target mRNA inhibition: 15%

## CTTCTGATAACGAAGA (sugars k3 d10 k3, PS)
  target mRNA inhibition: -5%

## CTTCTGCACCACCAGA (sugars k3 d10 k3, PS)
  target mRNA inhibition: 13%

## CTTGTCTTAGCTTGTT (sugars k3 d10 k3, PS)
  target mRNA inhibition: 71% and 61%

## CTTGTGTTCTCTTGAG (sugars k3 d10 k3, PS)
  target mRNA inhibition: 13%

## CTTTAAGCTGTTTAAG (sugars k3 d10 k3, PS)
  target mRNA inhibition: -4%

## CTTTACACCTCAGTAC (sugars k3 d10 k3, PS)
  target mRNA inhibition: 38%

## CTTTTAATCATACTCC (sugars k3 d10 k3, PS)
  target mRNA inhibition: 16%

## GAAAGCGAGTTCAAGT (sugars k3 d10 k3, PS)
  target mRNA inhibition: -1%

## GAAATCCCCTAGGGAA (sugars k3 d10 k3, PS)
  target mRNA inhibition: 6%

## GAACAGTACTGCATTT (sugars k3 d10 k3, PS)
  target mRNA inhibition: 28%

## GAACTAGTGGTTCCCA (sugars k3 d10 k3, PS)
  target mRNA inhibition: 46%

## GAAGAAGCTTCATCTC (sugars k3 d10 k3, PS)
  target mRNA inhibition: 15%

## GAAGAGCATTGGAGAT (sugars k3 d10 k3, PS)
  target mRNA inhibition: 49%

## GAAGCATACCTTAACA (sugars k3 d10 k3, PS)
  target mRNA inhibition: 5%

## GAAGCCCCTGCGCTGG (sugars k3 d10 k3, PS)
  target mRNA inhibition: 23%

## GAAGGATGAAATGCCT (sugars k3 d10 k3, PS)
  target mRNA inhibition: 7%

## GAAGTGTTTACACTGC (sugars k3 d10 k3, PS)
  target mRNA inhibition: 11%

## GAATCTCAGGGTTATG (sugars k3 d10 k3, PS)
  target mRNA inhibition: 57% and 76%

## GAATTCGATCACCTTC (sugars k3 d10 k3, PS)
  target mRNA inhibition: -1%

## GACAAGGCAGTTATAT (sugars k3 d10 k3, PS)
  target mRNA inhibition: 1%

## GACACTTTCCTTGCCC (sugars k3 d10 k3, PS)
  target mRNA inhibition: 48%

## GACAGACCTAAGGGAA (sugars k3 d10 k3, PS)
  target mRNA inhibition: 34%

## GACAGCTAAGATAGCA (sugars k3 d10 k3, PS)
  target mRNA inhibition: 12%

## GACCTGCCTTCAGGCG (sugars k3 d10 k3, PS)
  target mRNA inhibition: 13%

## GACTGCTTAAAACTGC (sugars k3 d10 k3, PS)
  target mRNA inhibition: 36%

## GACTTGCTCCCAAGAC (sugars k3 d10 k3, PS)
  target mRNA inhibition: 7%

## GAGGCAAGTCCTCATT (sugars k3 d10 k3, PS)
  target mRNA inhibition: 11%

## GAGGTATGACATATAA (sugars k3 d10 k3, PS)
  target mRNA inhibition: 54% and 49% and 50%

## GAGTCATTTGCCTTTA (sugars k3 d10 k3, PS)
  target mRNA inhibition: 73% and 48%

## GAGTGGTTTTATCTAA (sugars k3 d10 k3, PS)
  target mRNA inhibition: 31%

## GAGTTGAGGCAAGTCC (sugars k3 d10 k3, PS)
  target mRNA inhibition: 52%

## GATACCTGTCTGAGGC (sugars k3 d10 k3, PS)
  target mRNA inhibition: 33%

## GATAGTTCAGGGCTTT (sugars k3 d10 k3, PS)
  target mRNA inhibition: 10%

## GATATTTAAGAACTCC (sugars k3 d10 k3, PS)
  target mRNA inhibition: 38%

## GATCATTAAGCCACTT (sugars k3 d10 k3, PS)
  target mRNA inhibition: 10%

## GATCCAAGCTACTGGC (sugars k3 d10 k3, PS)
  target mRNA inhibition: 18%

## GATTAAAGTGTGATAG (sugars k3 d10 k3, PS)
  target mRNA inhibition: 16%

## GATTAGAGAAGAATCC (sugars k3 d10 k3, PS)
  target mRNA inhibition: 14%

## GATTATGGATCATGCC (sugars k3 d10 k3, PS)
  target mRNA inhibition: 47% and 61%

## GATTTGAGCTGCAAAC (sugars k3 d10 k3, PS)
  target mRNA inhibition: 0%

## GATTTTAAGGTTGCAT (sugars k3 d10 k3, PS)
  target mRNA inhibition: 55% and 38%

## GATTTTTACCAACCAC (sugars k3 d10 k3, PS)
  target mRNA inhibition: 42%

## GCAAGTCCTCATTACT (sugars k3 d10 k3, PS)
  target mRNA inhibition: 50% and 30%

## GCAATACTGCAGATGC (sugars k3 d10 k3, PS)
  target mRNA inhibition: -19%

## GCAATATCTTAGTAAC (sugars k3 d10 k3, PS)
  target mRNA inhibition: 23%

## GCACAGCTCGGGCGAG (sugars k3 d10 k3, PS)
  target mRNA inhibition: -20%

## GCACTGGTACACCCAG (sugars k3 d10 k3, PS)
  target mRNA inhibition: -9%

## GCACTTATCCCTAACA (sugars k3 d10 k3, PS)
  target mRNA inhibition: 58% and 40%

## GCAGATTCTGTGTTAT (sugars k3 d10 k3, PS)
  target mRNA inhibition: -2%

## GCAGTTATATTAGGTT (sugars k3 d10 k3, PS)
  target mRNA inhibition: 15%

## GCATATGCAGATAATG (sugars k3 d10 k3, PS)
  target mRNA inhibition: 36%

## GCATCAAGGCACTGAT (sugars k3 d10 k3, PS)
  target mRNA inhibition: 35%

## GCATGTAAGAATTAAG (sugars k3 d10 k3, PS)
  target mRNA inhibition: 28%

## GCATTCTAATAGCAGC (sugars k3 d10 k3, PS)
  target mRNA inhibition: 10% and 21%

## GCATTGGAGATCAGCT (sugars k3 d10 k3, PS)
  target mRNA inhibition: 11%

## GCATTTACTTGCCAAC (sugars k3 d10 k3, PS)
  target mRNA inhibition: 11%

## GCCAACTAATTGCCAA (sugars k3 d10 k3, PS)
  target mRNA inhibition: 33%

## GCCCACAAGGATCCAA (sugars k3 d10 k3, PS)
  target mRNA inhibition: 15%

## GCCCACCCTCTAAGAG (sugars k3 d10 k3, PS)
  target mRNA inhibition: 18%

## GCCCACTCTGATCTGC (sugars k3 d10 k3, PS)
  target mRNA inhibition: -4%

## GCCCAGTAGGCCAGAC (sugars k3 d10 k3, PS)
  target mRNA inhibition: 25%

## GCCCCAGTCCTTTACA (sugars k3 d10 k3, PS)
  target mRNA inhibition: 3%

## GCCCGCACGGAAATTT (sugars k3 d10 k3, PS)
  target mRNA inhibition: 23%

## GCCGCAGGGATTTGAA (sugars k3 d10 k3, PS)
  target mRNA inhibition: 31%

## GCCTCCTCCGTGTGGT (sugars k3 d10 k3, PS)
  target mRNA inhibition: -1%

## GCCTGGTTAGGTATGA (sugars k3 d10 k3, PS)
  target mRNA inhibition: 21%

## GCGCTTAAGAGGGCAG (sugars k3 d10 k3, PS)
  target mRNA inhibition: 6%

## GCTAAGATGCTAGCTT (sugars k3 d10 k3, PS)
  target mRNA inhibition: 10%

## GCTACAACAAGTAAGC (sugars k3 d10 k3, PS)
  target mRNA inhibition: 9%

## GCTAGTCCTCAGGATT (sugars k3 d10 k3, PS)
  target mRNA inhibition: 47%
